Reference: patent publication US9487477B2, “Crystalline phase of (3S,3S′) 4,4′-disulfanediylbis(3-aminobutane 1-sulfonic acid) with L-lysine” (Quantum Genomics, priority 2012, dated 2016)
Each block holds one compound with its values, some of them ahead of it.

Key:
Hygroscopicity = type: physicochemical
[1] = Solubility in water and other solvents; type: physicochemical
[2] = Karl Fischer titration (water content); type: physicochemical
Description: A Karl Fischer titration is a classical titration method to determine the trace amounts of water in a sample. A Karl Fischer titration has confirmed the DSC analysis, by determining a water content of 0.06% inside the sample (i.e. very small amount of adsorbed water).

[3] = Differential scanning calorimetry (thermal stability); type: physicochemical; conditions: DSC from −20° C. up to 180° C., heating rate 5K/min
Description: FIG. 3: DSC pattern of ABSD.(L-lysine)2. Said experiment was performed from −20° C. up to 180° C., heating rate=5K/min.
The phase isolated, so called “ABSD L-lysinate”, was analyzed by DSC (FIG. 3). […] Said results further confirm that the crystalline form is anhydrous.

[4] = cited from earlier work
[5] = TGA-DSC analysis coupled to mass spectrometry (thermal behavior, loss of water); type: physicochemical; conditions: TGA-DSC from 30° C., heating rate 5K/Min
Description: A TGA-DSC analysis (coupled to mass spectrometry) was performed on this salt in order to observe its thermal behavior, and to determine its water content.
A TGA-DSC analysis (coupled to mass spectroscopy) was performed on this phase (FIG. 8).
A TGA-DSC analysis coupled to a Mass Spectroscopy (MS) was performed on this phase (FIG. 10).

Structure (SMILES): NCCCCC(N)C(=O)O (racemic) [DL-lysine, reference compound]
hygroscopicity (Hygroscopicity): high hygroscopicity up to deliquescence

aqueous solubility compared to the ABSD trihydrate [1]: higher | aqueous solubility compared to the ABSD zwitterionic form ([1]; room temperature): higher | hygroscopy compared to the ABSD zwitterionic form (Hygroscopicity): lower | water content [2]: 0.06% | thermal stability: no thermal phenomenon up to [3]: up to 180 °C
Structure (SMILES): NCCCC[C@H](N)C(=O)O.NCCCC[C@H](N)C(=O)O.N[C@@H](CCS(=O)(=O)O)CSSC[C@@H](N)CCS(=O)(=O)O [ABSD L-lysinate]

Structure (SMILES): N[C@H](CCS(=O)(=O)O)CSSC[C@H](N)CCS(=O)(=O)O [ABSD zwitterion, (3S,3S′) 4,4′-disulfanediylbis(3-aminobutane 1-sulfonic acid)]
time for the mixture of hydrated forms to evolve toward the trihydrate phase ([4]; stored at circa 20° C. and RH>50%, WO 2012/045849): less than two days

temperature of loss of water [5]: circa 35 °C
Structure (SMILES): N[C@@H](CCS(=O)(=O)[O-])CSSC[C@@H](N)CCS(=O)(=O)O.[Na+] [sodium hydrogen salt of ABSD]

Structure (SMILES): N[C@H](CCS(=O)(=O)O)CSSC[C@H](N)CCS(=O)(=O)O [trihydrate phase]
temperature at which dehydration toward the dihydrate form starts ([4]; as described in WO 2012/045849): below 30 °C
